The values that follow come from US9155751B2, “Solution for tissue adhesion prevention and method for tissue adhesion prevention” (THE UNIVERSITY OF TOKYO, priority 2005, dated 2015).

One series deals with HepG2 cells. The experiment in a line: HepG2 cell survival after air-dry (neutral red absorbance). It is filed as cell-based, human. As to conditions: for cell survival rate: activated with sample solution 37 degrees C 1 hour, air-dry 3 minutes, control plate without air-dry = 100%; for cell survival rate in control plates (effect of each reagent on cells): air-dry not performed, control plate for PBS (+) = 100%; for cell protection effect: plates air-dried for 3 minutes. The procedure:
As cells, HepG2 cells (human hepatoma-derived cell lines) were used.
For all reagents other than HepG2 cells, AA-2G, trehalose, DMEM media, FCS, neutral red, reagent grade chemicals were used. In addition, as sample solution in which HepG2 cells were activated, 4 kinds of solution; PBS (+) solution, 2.5 mM AA-2G solution, 132 mM trehalose solution, 2.5 mM AA-2G+132 mM trehalose mixed solution were prepared.
A reagent ascorbic acid-2-glucoside (AA2G; Hayashihara Biochemical Labs., Inc.) was dissolved in distilled water to obtain 2.5 mM AA-2G solution. And a highly purified hydrated crystal trehalose in powder (Reagent trehalose; Hayashihara Biochemical Labs., Inc.) was dissolved in distilled water to obtain 132 mM trehalose solution. The reagents ascorbic acid-2-glucoside and the highly purified hydrated crystal trehalose in powder were dissolved in distilled water to obtain 2.5 mM AA-2G+132 mM trehalose mixed solution. Then, pH and osmolarity of these 4 kinds of sample solutions were adjusted. Adjustment of osmolarity of 2.5 mM AA-2G solution, 132 mM trehalose solution, 2.5 mM AA-2G+132 mM trehalose mixed solution was performed by adjusting with sodium chloride of PBS (+) to be isotonic.
The pH and osmolarity of each sample after adjustment were as follows; pH 7.2 and 279 mOsm for PBS (+) solution, pH 6.8 and 265 mOsm for 2.5 mM AA-2G solution, pH 7.2 and 283 mOsm for 132 mM trehalose solution and pH 7.0 and 282 mOsm for 2.5 mM AA-2G+132 mM trehalose mixed solution.
Then, HepG2 cells were seeded with 4×10^4 cells/well each to four 12-well plates, and incubated in DMEM media (Nissui Pharmaceutical Co., Ltd) containing 10% FCS (Gibco) for 4 days. Then the DMEM media containing 10% FCS were replaced with 4 kinds of sample solutions; PBS (+) solution, 2.5 mM AA-2G solution, 132 mM trehalose solution, 2.5 mM AA-2G+132 mM trehalose mixed solution, and activated at 37 degrees C. for 1 hour.
Two control plates and two test plates were prepared for cells activated with 4 kinds of sample solutions, respectively. For each two test plates, one plate was air-dried for 5 minutes and other plate was air-dried for 3 minutes. The two control plates were not air-dried.
Then, cells of each plate was replaced with no serum DMEM media and incubated at 37 degrees C. for 1 hour. After replacing with 0.02% neutral red (Wako Pure Chemical Industries, Ltd, hereinafter referred to NR), they were activated at 37 degrees C. for 40 minutes. After removal of NR solution and addition of PBS (+), they were left to stand at 37 degrees C. for 40 minutes, PBS (+) was removed and they were air-dried for 5 minutes. They were added NR extracts and left to stand at 37 degrees C. for 10 minutes, then each sample was distributed over 96-well plate and the absorbance at the wavelength of 570 nm was measured.
The absorbance of the control plates to which air-dry was not performed was considered as cell survival rate of 100%, and the cell survival rate of the test plates to which air-dry was performed for 3 minutes was calculated. The results are shown in the graph indicating changes in cell survival rate by air-dry in FIG. 1.
Also, the cell survival rates of control plates for each sample solution to which air-dry was not performed were calculated. The results are shown in the graph indicating the effect of each reagent on cells in FIG. 2.

In series [1] the test system is abdominal adhesion model using rabbits. Nature of the series: Rabbit abdominal adhesion model by desiccating intestine surface during abdominal surgery (Example 2). It is filed as in vivo, New Zealand White rabbits. The note with it: for Clinical findings: 2% trehalose solution sprayed on whole intestines several times during laparotomy. The procedure: In this example, abdominal adhesion model was prepared using rabbits by desiccating surface of intestines during abdominal surgery, and the preventive effect of intestine adhesion by trehalose was discussed.
As trehalose, powder trehalose (Reagent trehalose; Hayashihara Biochemical Labs., Inc.) and ^+NaCl were dissolved in sterile distilled water of 250 mL as 2%; solution, sterilized by filtration with filter (Millex; Millpore Co., Bedford) and poured to sterile container and stored at room temperature. As test animals, five female New Zealand White rabbits weighing 2.85 to 3.2 kg aged of 14 weeks (Std:NZW, Japan SLC, Inc., Shizuoka) were used. The rabbits were kept in animal laboratory (room temperature of 24+/−1 degrees C., humidity of 30 to […]) in The University of Tokyo, Graduate School of Agricultural and Life Sciences Veterinary Medical Center. The rabbits were acclimatized for 1 week after purchase, and during this period blood test (complete blood count, BUN, Cre, ALT, ALP) and general x-ray test were performed to confirm that abnormality was not present. The experiment of this example was performed according to the Manual of animal experiment of University of Tokyo.
(§1) The experiment of this example was performed as follows.
(§2) As anesthesia, 5 mg/kg of ketamine (KETALAL 50; Sankyo Lifetech Co., Ltd., Tokyo) and 0.1 mg/kg of medetomidine (DOMITOL; Meiji Seiyaku Co., Ltd., Tokyo) were intramuscularly injected as preoperative medication, and after intubation maintained with isoflurane (ISOFLU; Dainippon Pharmaceutical Co., Ltd., Osaka). Before operation, 10 mg/kg of enrofloxacin (BAYTRIL; Bayer Medical Ltd., Tokyo) was subcutaneously administered as antibiotics, and during operation 10 mL/kg/hr of lactated Ringer's solution (FUSO; Fuso Pharmaceutical Industries, Ltd., Osaka) was intravenously administered, After operation, single dose of 20 μg/kg of buprenorphine (LEPETAN; Otsuka Pharmaceutical Co., Ltd., Tokyo) as analgesics was subcutaneously administered. During anesthesia, ECG, ETCO2 and SpO2 were monitored and maintained within their normal variations.
Three rabbits among the five rabbits were randomized to the control group, and the other two rabbits were classified into the trehalose group. For the five rabbits, after disinfection of operative field, abdominal median incision was performed and intestines were exposed as far as possible and serum was wiped with gauze. For control group (three rabbits) they were left desiccated and for trehalose group (two rabbits) whole intestines were sprayed with trehalose for several times. During this period, ovariohysterectomy was performed according to given method. The time period of laparotomy was 30 to 60 minutes for both groups. The 3-0 monofilament nylon fiber (Bear surgical suture; Bear Medic Corporation, Chiba) was used for ovariohysterectomy and closure of abdominal wall, and the 4-0 monofilament polyglyconate fiber (MAXON; Syneture Co., Ltd., Connecticut) was used for subcutaneous tissues and stapler (Manipler AZ-35W; Mani Inc., Tochigi) was used for skin suture. After operation, general condition and wounds were observed and they were killed by overdose of pentobarbital after 2 weeks. The adhesion status in peritoneal cavity was macroscopically observed and recorded as well as tissues of adhesion sites were removed as pathohistological test material and fixed in formalin.
The clinical findings after 2 weeks and the macroscopic findings of adhesion status after laparotomy of each case are shown in Table 1.

The test system is the same in series [2]. Nature of the series: Rabbit abdominal adhesion model by desiccating intestine surface during abdominal surgery (Example 3). It counts as in vivo, New Zealand White rabbits. Details: key to Adhesion sites: greater omentum - rectum / Adhesion sites: greater omentum - stomach / Adhesion sites: greater omentum - small intestine / Adhesion sites: small intestine - rectum / Adhesion sites: abdominal wall - bladder / Adhesion sites: abdominal wall - fat / Adhesion sites: colon-fat / Adhesion sites: jejunum - abdominal wall / Adhesion sites: cecum - colon: non-adhesion: −; Adhesions of mild degree (abruption enabled): +; Adhesions of severe degree (abruption enabled): ++; Score-Total: scale not given here. The procedure: In this example, abdominal adhesion model was prepared using rabbits by desiccating surface of intestines during abdominal surgery, and the preventive effect on intestine adhesion by trehalose was discussed.
As trehalose, powder trehalose (Reagent trehalose; Hayashihara Biochemical Labs., Inc.) were dissolved in sterile distilled water of 250 mL as 7% solution, sterilized by filtration with filter (Millex; Millpore Co., Bed ford) and poured to sterile container and stored at room temperature.
As test animals, 20 female New Zealand White rabbits weighing 2.6 to 3.2 kg aged of 14 weeks (Std:NZW, Japan SLC, Inc., Shizuoka) were used. The rabbits were kept in animal laboratory (room temperature of 24+/−1 degrees C., humidity of 30 to 70%) in The University of Tokyo, Graduate School of Agricultural and Life Sciences Veterinary Medical Center. The rabbits were acclimatized for 1 week after purchase, and during this period blood test (complete blood count, BUN, Cre, ALT, ALP) and general x-ray test were performed to confirm that abnormality was not present. The experiment of this example was performed according to the Manual of animal experiment of The University of Tokyo.
as §1
as §2, with “Seiyaku Ca,” for “Seiyaku Co.,”, “isoflurane (SOFLU” for “isoflurane (ISOFLU;”, “intravenously administered.” for “intravenously administered,”, “administered.” for “administered. During anesthesia, ECG, ETCO2 and SpO2 were monitored and maintained within their normal variations.”
During anesthesia, ECG, ETCO2 and SpO2 were monitored and maintained within their normal variations.
For the 20 rabbits, after disinfection of operative field, abdominal median incision was performed and intestines were exposed as far as possible and serum was wiped with gauze. Total ovariohysterectomy performed according to given method. Four section of ovarion arteries and veins were severed after being ligated with 4-0 mono filament polyglyconate suture (MAXON; Syneture Co., Ltd., Connecticut). Also, uterovaginal stump were sutured with 5-0 mono filament polyglyconate suture (MAXON; Syneture Co., Ltd., Connecticut), the 3-0 mono filament polyglyconate suture (MAXON; Syneture CO., Ltd., Connecticut) was used for closure of abdominal wall, and the 4-0 mono filament polyglyconate suture (MAXON; Syneture Co., Ltd., Connecticut) was used for subcutaneous tissues and stapler (ManiplerAZ-35W; Mani Inc., Tochigi) was used for skin suture.
Ten rabbits among the twenty rabbits were randomized to the control group, and the other ten rabbits were classified into the trehalose group.
The control group (10 rabbits) was left desiccated. The time period of laparotomy was 60 minutes.
For the trehalose group, trehalose solution was sprayed over the whole abdominal cavities every 15 minutes (0 minutes, 15 minutes, 30 minutes, 45 minutes, 60 minutes after starting the operation). The time period of laparotomy was 60 minutes. After operation, general condition and wounds were observed and rabbits were euthanized by excessive administration of pentobarbital two weeks after the operations.
The adhesion status in peritoneal cavity was macroscopically observed and recorded as well as tissues of adhesion sites were removed as pathohistological test materials and fixed in formalin. The clinical findings after 2 weeks and the macroscopic findings of adhesion status after laparotomy of each case are shown in Table 2.

Where [3] appears, read: 2% trehalose solution sprayed on whole intestines, macroscopic, 2 weeks after operation, individual rabbits.
Setting [4] is: 7% trehalose solution sprayed every 15 minutes, 60 min laparotomy, 2 weeks after, individual rabbits No. 1-10.

“And” between values parts separate entries of the source, which are not always exact repeats. Equal values may be shown once. “Also recorded” adds a separate entry of the source.

Take `O=C1O[C@H]([C@@H](O)CO)C(O)=C1O[C@H]1O[C@H](CO)[C@@H](O)[C@H](O)[C@H]1O` [2.5 mM AA-2G solution, ascorbic acid-2-glucoside]: in the series on HepG2 cells, the cell survival rate is 61.8%; the “cell survival rate in control plates (effect of each reagent on cells)” value is 101.6% and 101.5%; the cell protection effect result is on record as “the cell protection effect was not observed”.
On to `OC[C@H]1O[C@H](O[C@H]2O[C@H](CO)[C@@H](O)[C@H](O)[C@H]2O)[C@H](O)[C@@H](O)[C@@H]1O` [Trehalose, trehalose], for which, in the series on HepG2 cells, the cell survival rate was 70.7% and the cell protection effect entry is on record as “the cell protection effect was observed”. In the series with HepG2 cells (listed as 132 mM trehalose solution), the “cell survival rate in control plates (effect of each reagent on cells)” value was 97.6% and 97.7%. Further, the Clinical findings result in series [1] (2 weeks after operation, individual rabbits) was “Partial dehiscence; also recorded: No abnormal findings”. Besides, the Clinical findings result in series [1] (2 weeks after operation, individual rabbits, listed as trehalose) was “a part of skin suture site was removed and showed ulcer in 1 case”. Besides, in series [1] (setting [3]), the “Findings after laparotomy: Adhesion of stump of uterus” value is given as “Present”; the “Findings after laparotomy: Adhesion sites in intestines” value was 2 sites of adhesion and No significant. The “Findings after laparotomy: Adhesion sites in intestines” value in series [1] (2% trehalose solution sprayed on whole intestines, macroscopic, 2 weeks after operation, individual rabbits, listed as trehalose) was 2 sites of mild adhesion were suspected in 1 rabbit and no significant adhesion was macroscopically observed. Also, in series [1] (spray of 2% trehalose solution), the “prevention of abdominal adhesion due to desiccation (conclusion)” value is “would be effective for prevention of abdominal adhesion due to desiccation”. The “cases with adhesions of mild and severe degree between abdominal organs” value in series [2] (7% trehalose solution spray, 10 rabbits, control 6 of 10) is reported as 2 of 10. Also, the “adhesion scores between organs (group)” value in series [2] (7% trehalose solution spray, 10 rabbits, control group +16) is on record as “+3”. For the same compound, in series [2] (setting [4]), the “Adhesion sites: abdominal wall - bladder” value is given as “−”; the “Adhesion sites: abdominal wall - fat” value was “−”; the “Adhesion sites: cecum - colon” value was “+ and − (9×)”; the “Adhesion sites: colon-fat” value was “−”. In addition, in series [2] (setting [4]), the “Adhesion sites: greater omentum - rectum” value is listed as “−”, the “Adhesion sites: greater omentum - small intestine” value is on record as “−”, the “Adhesion sites: greater omentum - stomach” value is “−” and the “Adhesion sites: jejunum - abdominal wall” value is on record as “−”. For the same compound, the “Adhesion sites: small intestine - rectum” value in series [2] (setting [4]) is “− (9×) and ++”. The Score-Total in series [2] (adhesion score per rabbit, 7% trehalose solution spray, individual rabbits No. 1-10) is 1 and 0 (8×) and 2. For the same compound, the “prevention of abdominal adhesion due to desiccation (conclusion)” value in series [2] (spray of 7% trehalose solution) is “can obviously prevent and reduce adhesions”. Also, the prevention ratio in series [2] (trehalose group versus control group adhesion score, Wilcoxon rank-sum test p<0.05) worked out at 81%.
